Patent US5594024A, “Centrally actig substituted phenylazacycloalkanes” (priority 1995, dated 1997)
Entries after “also recorded” stand apart in the source; their conditions may differ.

Columns and labels:
DA receptor = assay: DA metabolism (DOPAC, HVA levels) in habituated rats; type: in vivo, rat (male Sprague-Dawley); details: Rattus norvegicus, 1 h, read-out: DOPAC limbic
How it was run: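 Rats habituated to motility meters 60 min, no NSD given; killed one hour after drug administration (injection volume 5 mL/kg). Striatal and limbic DOPAC, HVA and 5-HIAA measured by HPLC-EC, expressed as % of controls (means ±SEM).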

5-HT receptor = assay: 5-HT metabolism (5-HIAA levels) in habituated rats; type: in vivo, rat (male Sprague-Dawley); details: Table 3
Procedure: (§1) Footnotes Table 3. The rats were habituated to the motility meters 60 min
SEM. The rats were immediately killed after the activity session, striata
and limbic levels of DOPAC and 5HIAA were measured by means of HPLCEC. *p
(§2) In the experiments with habituated rats no NSD was administered and the animals were killed one hour after drug administration. […] The levels were expressed as % of controls (DOPAC and 5-HIAA see Table 3). The in vivo brain microdialysis experiments were performed in conscious rats as described by Waters et al., Eur. J. Pharm., 187, 425-34 (1990).
Injection volumes were 5 mL/kg. […]

habituated rats = assay: Locomotor activity and behavior in habituated rats; type: in vivo, rat (male Sprague-Dawley); details: 60 min
Procedure: as §1
prior to the activity session.
Injection volumes were 5 mL/kg.
Locomotor activity was measured in rats which were habituated 60 minutes to the activity meters before drug injection. The activity was measured for the subsequent 60 minutes and expressed as % of controls (means ±SEM, n=4).

non-pretreated rats = assay: Locomotor activity and gross behavior in non-habituated (non-pretreated) rats; details: for Gross Behavioral Observations: non-pretreated rats
Excerpt: Immediately after drug administration, the rats were placed in the test cages (one rat/cage) and put into the motility meters. […] Observations of gross behavior were made throughout the activity sessions through semi-transparent mirrors.
Animals used in the biochemical and motor activity experiments were male rats of the Sprague-Dawley strain (ALAB, Sollentuna, Sweden), weighing 200-300 g. The rats were kept 5 per cage with free access to water and food (except for the starved animals for the experiments with per oral administration, who were only allowed water the last 18 hours before testing), at least one week from arrival until used in the experiments.
All substances to be tested were dissolved in saline immediately before use, occasionally with the addition of a few drops of glacial acetic acid and/or moderate heating in order to obtain complete dissolution. Injection volumes were 5 mL/kg.
Analysis of variance (ANOVA) followed by Fischer's test was used for the statistical calculations.
In vivo behavioral data was obtained with rats injected with drug and 5 minutes later put into the motility chambers for the first time. The motor activity was measured for the subsequent 30 minutes (accumulated counts/30 minutes) and expressed as % of saline treated controls.

striatal DA release = assay: In vivo brain microdialysis in rat striatum (conscious rats); details: for Microdialysis in rat striatum, 5-HIAA / Microdialysis in rat striatum, DA / Microdialysis in rat striatum, DOPAC / Microdialysis in rat striatum, HVA: 50 μmol/kg s.c.
Procedure: as §2
The dialysis was performed in conscious rats implanted with a dialysis probe (Carnegie Medicin, Stockholm) in the caudate. […] The perfusion media was a Ringer solution with a Ca2+ concentration of 1.2 mM. The perfusion rate was 2.0 μL/min and samples were collected every 20 minutes and analyzed on HPLC/EC. Data are expressed as % of controls, means ±SEM, n=4.

D2 receptors = biological target: T1, D2 receptors (Rattus norvegicus, UniProt P61169); assay: D2 antagonist binding ([3H]-spiperone), rat striatum
T1 construct: Preparation of rat striatal membranes for (3H)-spiperone; from tissue; host or cells: rat striatum (striatal membranes)
T1 sequence (P61169 whole entry): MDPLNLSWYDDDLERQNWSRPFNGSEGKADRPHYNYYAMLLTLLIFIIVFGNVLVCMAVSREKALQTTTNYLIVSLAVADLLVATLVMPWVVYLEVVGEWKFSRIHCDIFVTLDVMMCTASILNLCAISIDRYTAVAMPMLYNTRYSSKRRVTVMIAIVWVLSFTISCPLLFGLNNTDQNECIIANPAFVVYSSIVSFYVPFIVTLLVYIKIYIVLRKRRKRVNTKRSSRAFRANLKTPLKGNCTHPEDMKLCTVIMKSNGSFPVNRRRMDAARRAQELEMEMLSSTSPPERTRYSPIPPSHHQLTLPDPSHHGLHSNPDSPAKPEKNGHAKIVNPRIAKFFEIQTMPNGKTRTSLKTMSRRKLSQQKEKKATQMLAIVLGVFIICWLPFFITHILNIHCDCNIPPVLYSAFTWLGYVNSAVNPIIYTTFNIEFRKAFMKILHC
Procedure: D2 antagonist binding. Preparation of rat striatal membranes for (3H)-spiperone (specific activity 21-24 Ci/mmol) binding was carried out in a similar manner as described for D1-binding, Hyttel et al., J. Neural. Transm., 68, 171 (1987).
IC50 values were calculated by semi-log plot and linear regression analysis.

## CCCN1CCC[C@@H](c2cccc(C#N)c2)C1 [S-(-)-34, S-(-)-3-(3-Cyanophenyl-N-n-propyl)piperidine]
DA receptor; po
  response vs control in vivo at 25 µmol/kg: 138 ± 13%
DA receptor; sc
  response vs control in vivo at 100 µmol/kg: 226 ± 11%
5-HT receptor
  brain 5-HIAA levels (in words): no statistical significant effects; also recorded: No effects on the brain levels of 5-HIAA; also recorded: failed to affect brain levels of 5-HIAA
Habituated rats; % of controls
  locomotor stimulation in habituated rats: +600%
Habituated rats; Rattus norvegicus, 1 h, 25 μmol/kg po, habituated rats, read-out: Motor Activity
  response vs control in vivo at 25 µmol/kg: 231 ± 31%
non-pretreated rats; 25-200 μmol/kg, sc, dose-dependent monophasic, non-habituated rats
  increase in motor activity, maximal effect: +60%
non-pretreated rats; 50 sc
  Gross Behavioral Observations: Activation
non-pretreated rats; 100 sc
  Gross Behavioral Observations: Activation
non-pretreated rats; 200 sc
  Gross Behavioral Observations: No change
Striatal DA release; 0 min
  Microdialysis in rat striatum, 5-HIAA: 100 % of control
  Microdialysis in rat striatum, DA: 100 % of control
  Microdialysis in rat striatum, DOPAC: 100 % of control
  Microdialysis in rat striatum, HVA: 100 % of control
Striatal DA release; 20 min
  Microdialysis in rat striatum, 5-HIAA: 110 % of control
  Microdialysis in rat striatum, DA: 180 % of control
  Microdialysis in rat striatum, DOPAC: 180 % of control
  Microdialysis in rat striatum, HVA: 140 % of control
Striatal DA release; 40 min
  Microdialysis in rat striatum, 5-HIAA: 115 % of control
  Microdialysis in rat striatum, DA: 240 % of control
  Microdialysis in rat striatum, DOPAC: 250 % of control
  Microdialysis in rat striatum, HVA: 200 % of control
Striatal DA release; 60 min
  Microdialysis in rat striatum, 5-HIAA: 120 % of control
  Microdialysis in rat striatum, DA: 280 % of control
  Microdialysis in rat striatum, DOPAC: 295 % of control
  Microdialysis in rat striatum, HVA: 250 % of control
Striatal DA release; 80 min
  Microdialysis in rat striatum, 5-HIAA: 115 % of control
  Microdialysis in rat striatum, DA: 300 % of control
  Microdialysis in rat striatum, DOPAC: 300 % of control
  Microdialysis in rat striatum, HVA: 280 % of control
Striatal DA release; 100 min
  Microdialysis in rat striatum, 5-HIAA: 115 % of control
  Microdialysis in rat striatum, DA: 280 % of control
  Microdialysis in rat striatum, DOPAC: 295 % of control
  Microdialysis in rat striatum, HVA: 300 % of control
Striatal DA release; 120 min
  Microdialysis in rat striatum, 5-HIAA: 110 % of control
  Microdialysis in rat striatum, DA: 275 % of control
  Microdialysis in rat striatum, DOPAC: 280 % of control
  Microdialysis in rat striatum, HVA: 310 % of control
Striatal DA release; 140 min
  Microdialysis in rat striatum, 5-HIAA: 105 % of control
  Microdialysis in rat striatum, DA: 225 % of control
  Microdialysis in rat striatum, DOPAC: 260 % of control
  Microdialysis in rat striatum, HVA: 300 % of control
Striatal DA release; 160 min
  Microdialysis in rat striatum, 5-HIAA: 110 % of control
  Microdialysis in rat striatum, DA: 200 % of control
  Microdialysis in rat striatum, DOPAC: 250 % of control
  Microdialysis in rat striatum, HVA: 305 % of control
Striatal DA release; 180 min
  Microdialysis in rat striatum, 5-HIAA: 110 % of control
  Microdialysis in rat striatum, DA: 190 % of control
  Microdialysis in rat striatum, DOPAC: 230 % of control
  Microdialysis in rat striatum, HVA: 280 % of control
Striatal DA release; 200 min
  Microdialysis in rat striatum, 5-HIAA: 110 % of control
  Microdialysis in rat striatum, DA: 180 % of control
  Microdialysis in rat striatum, DOPAC: 215 % of control
  Microdialysis in rat striatum, HVA: 220 % of control
Striatal DA release; 220 min
  Microdialysis in rat striatum, 5-HIAA: 100 % of control
  Microdialysis in rat striatum, DA: 160 % of control
  Microdialysis in rat striatum, DOPAC: 190 % of control
  Microdialysis in rat striatum, HVA: 230 % of control
Striatal DA release; 50 μmol/kg, sc
  duration for the increase in DOPAC and HVA: at least 4 hours
  duration of the effect (DA release): approximately 2.5 hours
  levels of 5-HIAA, microdialysis (in words): No consistent changes in the levels of 5-HIAA; also recorded: failed to affect brain levels of 5-HIAA
D2 receptors; (3H)-Spiperone binding
  affinity for D2 receptors (in words): weak, affinity to the dopamine D2 receptor site
D2 receptors; read-out: in vitro binding IC50, D2 -spip, [3H]-spiperone, rat striatum
  IC50: 3.5 µM
